For assay [1], the target named is T1, Ras farnesyl transferase (Rattus norvegicus, UniProt Q02293+Q04631).
T1 construct: endogenous in cells; host or cells: Rat2 fibroblasts transformed with C-Harvey-Ras or with the H-Ras/K-Ras polybasic-domain fusion
The experiment in a line: In vivo (intracellular) Ras farnesylation inhibition in Rat2 cell line transformed with H-Ras fused with polybasic lysine domain of K-Ras. Particulars: Rat2 cells transformed with H-Ras/K-Ras polybasic domain fused protein; concentration inhibiting 50% of farnesyl binding; read-out: K-Ras CIC50. The class given is cell-based. How it is done: (§1) In the present experiment, Rat2 cell line which expresses C-Harvey-Ras protein having transforming activity and Rat2 cell line(Korean patent application No. 97-14409) which is transformed with fused protein of H-Ras substituted with polybasic lysine domain at C-terminus of K-Ras were used. The experiment was performed by the modified Declue's method(Declue. J. E. et al., Cancer Research, 51, 712, 1991) as follows.
(§2) 3×10^5 cells of transformed Rat2 fibroblast cell line were sprayed on 60 mm cell cultivation dish and cultivated for 48 hours in a cell incubator at 37° C. and after 50% or more of density was reached, it was treated with the test compounds. The compound according to the present invention dissolved in dimethylsulfoxide(DMSO) was used. 1% concentration of dimethylsulfoxide was used in both control and test groups. After 4 hours from the treatment with the compound, methionine labeled with 150 μCi of radioactive isotope [^35S] per 1 ml of medium was added and after cultivating for 20 hours, the cells were washed with physiological saline water. The cells were lysed using 1 ml of cold cell lysis buffer solution(50 mM of Sodium HEPES buffer solution containing 5 mM of magnesium chloride, 1 mM of DTT, 1% NP 40, 1 mM of EDTA, 1 mM of PMSF, 2 μM of leupeptin, 2 μM of pepstatin A and 2 μM of antipain) and the supernatant wherein the cells were lysed was obtained by high-velocity centrifugation of 12,000 g×5 minutes. The amount of radioisotope in the supernatant was measured and standardized to obtain a quantitative result in immunoprecipitation reaction and then, Y13-259, a monoclonal antiboby specifically binding to Ras protein(see: Furth, M. E. et al., J. Virol, 43, 294, 1982) was added and reacted for 15 hours at 4° C. Protein A(combined with goat anti-murine immunoglobulin antibody)-agarose suspension was added to the solution and reacted for 1 hour at 4° C. and then, to remove the unspecific binding product, immunoprecipitates were washed with a buffer solution (50 mM Tris chloride buffer solution containing 50 mM of sodium chloride, 0.5% of sodium dioxycholate, 0.5% of NP 40 and 0.1% of SDS). The precipitates were added to a buffer solution for electrophoresis and boiled and then, electrophoresis was performed using 13.5% of SDS polyacrylamide gel. After electrophoresis, the gel was fixed and dried. Then, the gel was exposed to X-ray film, developed and printed. From the result of the experiment, intensities of band of protein combined with or without farnesyl of Ras protein was measured, and the concentration of the test compound inhibiting 50% of farnesyl binding was defined as CIC50, an in vivo Ras farnesyl transferase inhibitory activity. IC50 means the data from Experimental 1 and CIC50 means the data from Experimental 2.

In assay [2] the target is T2, Ras farnesyl transferase (Homo sapiens, UniProt P49354+P49356).
T2 construct: made in house
The experiment in a line: Ras farnesyl transferase enzyme inhibition, H-Ras substrate. The class given is biochemical. Particulars: H-Ras substrate protein; recombinant farnesyl transferase; 30 minutes at 37° C. The text has this: (§3) In the present experiment, the improved Pompliano's method (see: Pompliano et al., Biochemistry, 31, 3800, 1992) was applied. Specifically, Ras farnesyl transferase produced by genetic recombination techniques was used, and fused protein of H-Ras(H-Ras-CVLS) substituted with polybasic lysine domain at C-terminus of K-Ras (see: Korean Patent Appln. No. 97-14409) was used as a substrate after it had been purified according to the known method(see, Chung et al., Biochimica et Biophysica Acta, 1129, 278, 1992).
(§4) The enzyme reaction was performed in 50 μl of 50 mM Sodium HEPES buffer solution containing 25 mM of potassium chloride, 25 mM of magnesium chloride, 10 mM of DTT and 50 μM of zinc chloride. 1.5 μM of Ras substrate protein, 0.15 μM of tritium-farnesylpyrophosphate and 4.5 nM of farnesyl transferase were used. More specifically, in the initial step, farnesyl transferase was added to the above buffer solution, reaction was maintained for 30 minutes at 37° C. and then the reaction was stopped by adding 1 ml of ethanol solution containing 1M HCl. The formed precipitates were adsorbed to GF/B filter using Hopper harvestor(Hopper #FH 225V) for filter-binding, washed with ethanol, and then radioactivity of the dried filter was measured using LKB β counter. Enzyme titer was measured in the unsaturated state of substrate where the concentration of Ras substrate protein and farnesyl transferase have quantitative relationship. The compound according to the present invention dissolved in dimethyl sulfoxide(DMSO) was added to the reaction solution in an amount of less than 5% of the total reaction solution, and then the enzyme inhibitory activity thereof was measured. The enzyme inhibitory activity was represented by percentage of the amount of farnesyl incorporated into the Ras substrate protein in the presence of the test compound to that in the absence of the test compound. IC50 of the test compound was defined as the concentration at which 50% of the enzyme activity was inhibited. To evaluate the selective enzyme inhibitory activity of the compound according to the present invention, inhibitory activity on geranylgeranyl transferase was measured. Geranylgeranyl transferase was purified from bovine brain according to the modified Schaber's method(Schaber et al., J. Biol. Chem. 265, 14701, 1990), and substantially the same experimental procedure as that for farnesyl transferase was performed on geranylgeranyl pyrophosphate and Ras-CVIL substrate protein.

For assay [3], the target named is T1, Ras farnesyl transferase. The experiment in a line: In vivo (intracellular) Ras farnesylation inhibition in Rat2 cell line expressing C-Harvey-Ras. The class given is cell-based. Particulars: Rat2 cells expressing C-Harvey-Ras; concentration inhibiting 50% of farnesyl binding; read-out: H-Ras CIC50. As to the method:
as §1, §2

Assay [4] has as its target T2, Ras farnesyl transferase. The experiment in a line: Ras farnesyl transferase enzyme inhibition, K-Ras substrate (H-Ras fused with polybasic lysine domain of K-Ras). The class given is biochemical. Particulars: K-Ras substrate (fused protein of H-Ras with polybasic lysine domain of K-Ras); recombinant farnesyl transferase.
Text: as §3, §4

With “1-[1-(3-benzyloxypropyl)-2-methyl-1H-imidazol-5-ylmethyl]-3-[N-(2-methoxyethyl)-N-methyl]carbamoyl-4-(naphthalen-1-yl)-1H-pyrrole [Example 34]”, the IC50 at Ras farnesyl transferase [1] was over 10000 nM; at Ras farnesyl transferase [2], under 4 nM; at Ras farnesyl transferase [3] it was over 12.5 nM; at Ras farnesyl transferase [4], under 4.7 nM.
In the same order, the values of `COCCN(C)C(=O)c1cn(Cc2cncn2CCCOCc2ccccc2)cc1-c1cccc2ccccc12` [Example 1, 1-[1-(3-benzyloxypropyl)-1H-imidazol-5-yl]methyl-3-[N-(2-methoxyethyl)-N-methyl]carbamoyl-4-(naphthalen-1-yl)-1H-pyrrole] are 10000 to 50000 nM, under 10 nM, under 25 nM and under 10 nM.
In the same order, the values of `O=C(c1cn(Cc2cncn2CCCOCc2ccccc2)cc1-c1cccc2ccccc12)N1CCOCC1` [Example 2, 1-[1-(3-benzyloxypropyl)-1H-imidazol-5-yl]methyl-3-(morpholin-4-yl)carbonyl-4-(naphthalen-1-yl)-1H-pyrrole] are 10000 to 50000 nM, under 10 nM, under 25 nM and under 10 nM.
In the same order, the values of `CN1CCN(C(=O)c2cn(Cc3cncn3CCCOCc3ccccc3)cc2-c2cccc3ccccc23)CC1` [Example 3, 1-[1-(3-benzyloxypropyl)-1H-imidazol-5-yl]methyl-3-(4-methylpiperazin-1-yl)carbonyl-4-(naphthalen-1-yl)-1H-pyrrole] are 10000 to 50000 nM, under 10 nM, under 25 nM and under 10 nM.
`COCCN(C)C(=O)c1cn(Cc2cncn2CCCOc2ccccc2)cc1-c1cccc2ccccc12` [Example 4, 3-[N-(2-methoxyethyl)-N-methyl]carbamoyl-4-(naphthalen-1-yl)-1-[1-(3-phenoxypropyl)-1H-imidazol-5-yl]methyl-1H-pyrrole]: the IC50 at Ras farnesyl transferase [1] was 10000 to 100000 nM; at Ras farnesyl transferase [2], under 10 nM; at Ras farnesyl transferase [3] it was under 25 nM; at Ras farnesyl transferase [4], under 10 nM.
In the case of `COCCN(C)C(=O)c1cn(Cc2cncn2CCCSc2ccccc2)cc1-c1cccc2ccccc12` [Example 5, 3-[N-(2-methoxyethyl)-N-methyl]carbamoyl-4-(naphthalen-1-yl)-1-[1-(3-thiophenoxypropyl)-1H-imidazol-5-yl]methyl-1H-pyrrole], the IC50 at Ras farnesyl transferase [1] is 10000 to 50000 nM; at Ras farnesyl transferase [2] it was under 10 nM; on Ras farnesyl transferase [3], under 25 nM; on Ras farnesyl transferase [4] it was under 10 nM.
In the case of `O=C(c1cn(Cc2cncn2CCCOc2ccccc2)cc1-c1cccc2ccccc12)N1CCOCC1` [Example 6, 3-(morpholin-4-yl)carbonyl-4-(naphthalen-1-yl)-1-[1-(3-phenoxypropyl)-1H-imidazol-5-yl]methyl-1H-pyrrole], the IC50 at Ras farnesyl transferase [1] was 10000 to 50000 nM; on Ras farnesyl transferase [2] it was under 10 nM; at Ras farnesyl transferase [3], under 25 nM; on Ras farnesyl transferase [4] it was under 10 nM.
With `CN1CCN(C(=O)c2cn(Cc3cncn3CCCOc3ccccc3)cc2-c2cccc3ccccc23)CC1` [Example 7, 3-(4-methylpiperazin-1-yl)carbonyl-4-(naphthalen-1-yl)-1-[1-(3-phenoxypropyl)-1H-imidazol-5-yl]methyl-1H-pyrrole], the IC50 on Ras farnesyl transferase [1] is 10000 to 50000 nM; on Ras farnesyl transferase [2], under 10 nM; on Ras farnesyl transferase [3], under 25 nM; at Ras farnesyl transferase [4], under 10 nM.
Consider `CCSCCCn1cncc1Cn1cc(C(=O)N(C)CCOC)c(-c2cccc3ccccc23)c1` [Example 8, 3-[N-(2-methoxyethyl)-N-methyl]carbamoyl-4-(naphthalen-1-yl)-1-[1-(3-thioethoxypropyl)-1H-imidazol-5-yl]methyl-1H-pyrrole], for which the IC50 is 10000 to 50000 nM on Ras farnesyl transferase [1], under 10 nM on Ras farnesyl transferase [2], over 25 nM at Ras farnesyl transferase [3] and under 10 nM on Ras farnesyl transferase [4].
In the case of `COCCN(C)C(=O)c1cn(Cc2cncn2CCCN2CCOCC2)cc1-c1cccc2ccccc12` [Example 9, 3-[N-(2-methoxyethyl)-N-methyl]carbamoyl-1-{1-[3-(morpholin-4-yl)propyl]-1H-imidazol-5-yl}methyl-4-(naphthalen-1-yl)-1H-pyrrole], the IC50 at Ras farnesyl transferase [1] was 10000 to 50000 nM; on Ras farnesyl transferase [2], under 10 nM; on Ras farnesyl transferase [3], under 25 nM; at Ras farnesyl transferase [4] it was under 10 nM.
For the compound `COCCN(C)C(=O)c1cn(Cc2cncn2CCc2cccs2)cc1-c1cccc2ccccc12` [Example 10, 3-[N-(2-methoxyethyl)-N-methyl]carbamoyl-4-(naphthalen-1-yl)-1-{1-[2-(thiophen-2-yl)ethyl]-1H-imidazol-5-yl}methyl-1H-pyrrole], the IC50 at Ras farnesyl transferase [1] is 10000 to 50000 nM; at Ras farnesyl transferase [2], under 10 nM; at Ras farnesyl transferase [3], over 25 nM; at Ras farnesyl transferase [4], under 100 nM.
In the same order, the values of `CN1CCN(C(=O)c2cn(Cc3cncn3CCc3cccs3)cc2-c2cccc3ccccc23)CC1` [Example 11, 3-(4-methylpiperazin-1-yl)carbonyl-4-(naphthalen-1-yl)-1-{1-[2-(thiophen-2-yl)ethyl]-1H-imidazol-5-yl}methyl-1H-pyrrole] are 10000 to 50000 nM, under 10 nM, over 25 nM and under 100 nM.
In the same order, the values of `CN1CCN(C(=O)c2cn(Cc3cncn3Cc3ccco3)cc2-c2cccc3ccccc23)CC1` [Example 12, 1-[1-(furan-2-yl)methyl-1H-imidazol-5-yl]methyl-3-(4-methylpiperazin-1-yl)carbonyl-4-(naphthalen-1-yl)-1H-pyrrole] are 10000 to 50000 nM, under 10 nM, over 25 nM and under 100 nM.
In the same order, the values of `COCCN(C)C(=O)c1cn(Cc2cncn2C2CCN(Cc3ccccc3)CC2)cc1-c1cccc2ccccc12` [Example 13, 1-[1-(1-benzylpiperidin-4-yl)-1H-imidazol-5-yl]methyl-3-[N-(2-methoxyethyl)-N-methyl]carbamoyl-4-(naphthalen-1-yl)-1H-pyrrole] are 10000 to 50000 nM, under 10 nM, under 25 nM and under 10 nM.

These data come from patent US6511978B1, “Pyrrole derivatives useful for farnesyl transferase inhibitors and their preparations” (LG Life Sciences, Ltd., priority 1999, dated 2003).
